Reference: patent publication US20250136555A1 (HARBIN MEDISAN PHARMACEUTICAL CO., LTD., priority 2022, published 2025)
pEC50: −log10 of the molar value. Like-named read-outs stand apart in the source and are kept apart here.

Key:
Format in all cases: cell-based
PPARα = molecular target: T1, PPARα (Homo sapiens, UniProt Q07869); assay: GAL4 hybrid reporter gene method, PPARα agonistic activity; conditions: Cos-7 cells, Gal4-PPARα (LBD); GW7647 10 nM = 100%; 16 h
T1 construct: expressed in transfected cells; host or cells: COS-7
T1 sequence (Q07869 239-466 limits assumed): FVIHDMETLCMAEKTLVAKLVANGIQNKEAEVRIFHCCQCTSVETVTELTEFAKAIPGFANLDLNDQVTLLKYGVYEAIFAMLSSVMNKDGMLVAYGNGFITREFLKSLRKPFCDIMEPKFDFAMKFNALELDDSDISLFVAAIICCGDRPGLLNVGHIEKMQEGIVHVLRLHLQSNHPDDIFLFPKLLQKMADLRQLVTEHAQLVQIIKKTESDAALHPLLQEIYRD
Procedure: (§1) Cos-7 cells (African green monkey kidney fibroblasts, commonly used tool cells) were cultured in a 10-cm cell culture dish with a DMEM complete medium containing 10% fetal bovine serum. When growing at a density of about 70%, the cells were ready for transfection. […] The working solution described above was then combined with 8 mL of the DMEM complete medium, and the mixture was added to the cell culture dish for cell transfection. After 4 h of transfection, the cells were digested, resuspended, and seeded into a 96-well plate at 25,000 cells/well. […] 10 μL of a reporter gene detection solution (purchased from Shanghai Beyotime Biological Tech. Co., Ltd.) was added. After the resulting solution was mixed and reacted, biological fluorescence was detected by using a multifunctional microplate reader, and corresponding half maximal effective concentration (EC50) values were calculated according to the detection values. […] Transfection working solutions for different nuclear receptors were prepared and added into COS-7 cells. The preparation method for the transfection working solution was as follows: the constructed pBIND-Gal4-PPARα (LBD) (or pBIND-Gal4-PPARδ (LBD) plasmid or pBIND-Gal4-PPARγ (LBD) plasmid or pBIND-Gal4-RARα (LBD) plasmid or pBIND-Gal4-RARγ (LBD) plasmid or pBIND-Gal4-RARβ (LBD) plasmid or pBIND-Gal4-RORα (LBD) plasmid or pBIND-Gal4-RORγ (LBD) plasmid or pBIND-Gal4-RORβ (LBD) plasmid or pBIND-Gal4-FXR (LBD) plasmid or pBIND-Gal4-RXRα.

PPARδ = molecular target: T2, PPARδ (Homo sapiens, UniProt Q03181); assay: GAL4 hybrid reporter gene method, PPARδ agonistic activity
T2 construct: expressed in transfected cells; host or cells: COS-7
T2 sequence (Q03181 211-439 limits assumed): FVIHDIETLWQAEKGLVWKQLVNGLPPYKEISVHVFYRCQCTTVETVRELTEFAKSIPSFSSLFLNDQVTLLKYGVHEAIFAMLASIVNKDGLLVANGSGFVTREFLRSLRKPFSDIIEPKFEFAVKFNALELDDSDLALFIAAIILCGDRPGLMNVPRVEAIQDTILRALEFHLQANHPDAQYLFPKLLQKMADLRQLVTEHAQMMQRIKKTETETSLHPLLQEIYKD
Procedure: as §1

PPARγ = molecular target: T3, PPARγ (Homo sapiens, UniProt P37231); assay: GAL4 hybrid reporter gene method, PPARγ agonistic activity
T3 construct: expressed in transfected cells; host or cells: COS-7
T3 sequence (P37231 238-503 limits assumed): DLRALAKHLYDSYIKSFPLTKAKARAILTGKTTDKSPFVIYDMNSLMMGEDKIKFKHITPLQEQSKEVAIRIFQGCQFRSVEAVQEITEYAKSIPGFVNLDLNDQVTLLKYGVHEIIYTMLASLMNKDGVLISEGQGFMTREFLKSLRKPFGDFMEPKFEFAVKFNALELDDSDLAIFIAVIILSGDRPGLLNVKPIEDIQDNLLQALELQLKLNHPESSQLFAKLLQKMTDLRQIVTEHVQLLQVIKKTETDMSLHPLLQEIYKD

[1] = Cos-7 cells, Gal4-PPARδ (LBD), GW501516 10 nM = 100%, 16 h
[2] = Cos-7 cells, Gal4-PPARγ (LBD), Rosiglitazone 1 μM = 100%, 16 h

SMILES	pEC50 (PPARα)	pEC50 (PPARδ)	pEC50 (PPARγ)	pEC50 (PPARδ; [1])	pEC50 (PPARγ; [2])
CC(C)(Oc1c(F)cc(CN2C(=O)CN(c3ccc(C(F)(F)F)cc3)C2=O)cc1Cl)C(=O)O [Compound 47, 2-(2-Chloro-4-((2,5-dioxo-3-(4-(trifluoromethyl)phenyl)imidazolin-1-yl)methyl)-6-fluorophenoxy)-2-methylpropionic Acid]	8.00	7.72	< 5.30	–	–
CC(C)(Oc1ccc(CN2C(=O)CN(c3ccc(C(F)(F)F)cc3)C2=O)cc1Cl)C(=O)O [Compound 51, 2-(4-((2,5-Dioxo-3-(4-(trifluoromethyl)phenyl)imidazolin-1-yl)methyl)-2-chlorophenoxy)-2-methylpropionic Acid]	7.05	7.40	< 5.30	–	–
Cc1cc(CN2C(=O)CN(c3ccc(C(F)(F)F)cc3)C2=O)cc(C)c1OCC(=O)O [Compound 53, 2-(4-((2,5-Dioxo-3-(4-(trifluoromethyl)phenyl)imidazolin-1-yl)methyl)-2,6-dimethylphenoxy)acetic Acid]	6.49	–	< 5.30	6.76	–
CC(C)(Oc1ccc(CN2C(=O)CN(c3ccc(C(F)(F)F)cc3)C2=O)cc1OC(F)(F)F)C(=O)O [Compound 55, 2-(4-((2,5-Dioxo-3-(4-(trifluoromethyl)phenyl)imidazolin-1-yl)methyl)-2-(trifluoromethoxy)phenoxy)-2-methylpropionic Acid]	7.09	7.62	5.53	–	–
Cc1cc(CN2C(=O)CN(c3ccc(C(F)(F)F)cc3)C2=O)ccc1OC(C)(C)C(=O)O [Compound 57, 2-(4-((2,5-Dioxo-3-(4-(trifluoromethyl)phenyl)imidazolin-1-yl)methyl)-2-(methyl)phenoxy)-2-methylpropionic Acid]	7.33	–	–	7.72	5.57
CC(C)(Oc1ccc(CN2C(=O)CN(c3ccc(C(F)(F)F)cc3)C2=O)cc1)C(=O)O [Compound 59, 2-(4-((2,5-Dioxo-3-(4-(trifluoromethyl)phenyl)imidazolin-1-yl)methyl)phenoxy)-2-methylpropionic Acid]	6.56	–	< 5.30	6.45	–
CCC(Oc1c(C)cc(CN2C(=O)CN(c3ccc(C(F)(F)F)cc3)C2=O)cc1C)C(=O)O (stereo not drawn) [Compound 67, 2-(4-((2,5-Dioxo-3-(4-(trifluoromethyl)phenyl)imidazolin-1-yl)methyl)-2,6-dimethylphenoxy)butyric Acid]	7.85	8.47	5.72	–	–
Cc1cc(CN2C(=O)CN(c3ccc(S(C)(=O)=O)cc3)C2=O)cc(C)c1OC(C)(C)C(=O)O [Compound 71, 2-(2,6-Dimethyl-4-((3-(4-(methylsulfonyl)phenyl)-2,5-dioxoimidazolin-1-yl)methyl)phenoxy)-2-methylpropionic Acid]	5.96	< 5.30	< 5.30	–	–
COc1cc(CN2C(=O)CN(c3ccc(C(F)(F)F)cc3)C2=O)cc(Cl)c1OC(C)(C)C(=O)O [Compound 73, 2-(2-Chloro-4-((2,5-dioxo-3-(4-(trifluoromethyl)phenyl)imidazolin-1-yl)methyl)-6-methoxyphenoxy)-2-methylpropionic Acid]	8.62	7.51	5.67	–	–
CC(C)(Oc1ccc(CN2C(=O)CN(c3ccc(C(F)(F)F)cc3)C2=O)cc1Br)C(=O)O [Compound 77, 2-(2-Bromo-4-((2,5-dioxo-3-(4-trifluoromethyl)phenyl)imidazolidin-1-yl)methylphenoxy)-2-methylpropionic Acid]	7.13	7.60	5.50	–	–
Cc1cc(CN2CC(=O)N(c3ccc(C(F)(F)F)cc3)C2=O)cc(C)c1OC(C)(C)C(=O)O [Compound 81, 2-(4-((2,4-Dioxo-3-(4-(trifluoromethyl)phenyl)imidazolidin-1-yl)methyl)-2,6-dimethylphenoxy)-2-methylpropionic Acid]	6.78	–	< 5.30	7.09	–
Cc1cc(CN2C(=O)N(c3ccc(C(F)(F)F)cc3)C(=O)C2(C)C)cc(C)c1OC(C)(C)C(=O)O [Compound 83]	7.10	–	–	8.19	5.77
